Data published in the SangsterLogP compilation.

## Cc1ccccc1N1CCNCC1
  logP: 2.14

## Fc1cnc(N2CCNCC2)nc1
  logP: 0.97

## Clc1cccc(N2CCNCC2)c1
  logP: 2.11

## c1ccc(N2CCNCC2)nc1
  logP: 0.74

## c1ccc2c(N3CCNCC3)nsc2c1
  logP: 2.14

## c1ccc2nc(N3CCNCC3)ccc2c1
  logP: 2.04

## Clc1ccccc1N1CCNCC1
  logP: 2.13

## FC(F)(F)c1cccc(N2CCNCC2)c1
  logP: 2.43

## c1cnc(N2CCNCC2)nc1
  logP: 0.49

## Clc1ccc(N2CCNCC2)cc1
  logP: 2.01

## COc1ccccc1N1CCNCC1
  logP: 1.09

## c1csc(N2CCNCC2)n1
  logP: 0.61

## Fc1ccc(N2CCNCC2)cc1
  logP: 1.28
